Data on one compound can be found in patent US10017791B2, “Coryneform bacterium transformant and process for producing 4-hydroxybenzoic acid or salt thereof using the same” (GREEN PHENOL DEVELOPMENT CO., LTD., priority 2014, dated 2018).

Structures are written as SMILES.

This experiment deals with T1, chorismate-pyruvate lyase of Citrobacter youngae (Citrobacter youngae, UniProt A0ABM8MN84, A17E/A70K/G54A/S20A/T66M).
T1 sequence (A0ABM8MN84 1-165 A17E/S20A/G54A/T66M/A70K): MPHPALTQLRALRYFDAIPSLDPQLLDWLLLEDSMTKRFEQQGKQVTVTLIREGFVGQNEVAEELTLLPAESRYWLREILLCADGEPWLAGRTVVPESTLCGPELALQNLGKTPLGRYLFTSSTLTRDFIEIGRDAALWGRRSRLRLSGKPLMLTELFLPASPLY
Briefly: Product inhibition of chorismate-pyruvate lyase activity by 4-HBA (IC50). It is filed as biochemical. Conditions: cell lysate supernatant of strain HBA13.

In the case of `O=C(O)c1ccc(O)cc1` [Strain 4-HBA, 4-hydroxybenzoic acid], the midpoint of inhibition, the IC50, lay at 67 µM.
